Measurements from US5629304A, “Therapeutic agent for thrombocytopenia and indolocarbazole derivatives” (Kyowa Hakko Kogyo Co., Ltd., priority 1994, dated 1997).

Assays:
[1] = system: megakaryocyte colony formation (bone marrow cells); experiment: Megakaryocyte colony formation-stimulating activity; assay type: cell-based, BALB/c mouse; conditions: control (IL-3 alone) defined as 100, IL-3 100 U/ml, 7 days
Protocol: Megakaryocyte colony formation-stimulating activity
An eight-weeks-old BALB/c mouse was killed. Its femurs and cervical vertebrae were taken out, and both end sections thereof were cut off. Bone marrow cells were collected from the pieces cut off from the femurs and cervical vertebrae using a syringe containing IMDM (430-2200EA prepared by Gibco Co.), and then blown into a test tube. The test tube was allowed to stand for 5 minutes, and the supernatant was collected with a pipet. To a reaction mixture comprising the bone marrow cells (50,000 cells), bovine serum albumin (2%: A4508 made by Sigma Co.), transferrin (600 μg/ml: 652202 made by Boehringer Mannheim Co.), IL-3 (100 U/ml), cholesterol (16 μg/ml: 036-0641 made by Wako Co.) and agar (0.6%: 0142-02 made by Difco Laboratories) were separately added the test compounds at various concentrations, and 1 ml each of the mixtures was put into a 35-mm dish (Lux Co.), followed by incubation under the conditions of 37° C., 5% CO2 and a humidity of 95% or more for 7 days. Separately, IL-3 alone was added to the bone marrow cells to prepare a control. After the incubation was completed, the agar was dried over a filter paper (1001-055 made by Whatman Co.) and then fixed with 2.5% glutaraldehyde, followed by acetylcholinesterase staining (ACHE staining).
The ACHE staining was carried out by the method described below.
ACHE staining: To each sample was added a solution comprising 0.67 mg/ml acetylthiocholine iodide, 2.94 mg/ml sodium citrate, 7.5 mg/ml copper (II) sulfate and 1.65 mg/ml potassium ferricyanide, and the mixture was allowed to stand at room temperature in the dark for 4-6 hours.
A group of 4 or more megakaryocytes which were stained reddish brown was regarded as a colony, and the number of colonies per dish was calculated using a microscope. The results are shown in Table 2 as relative values to the control.

[2] = system: platelets; experiment: Platelet Production-Stimulating Activity in Mice; assay type: in vivo, BALB/c mice; conditions: day 1 to 5, blood on day 15, vs solvent control
Source text: Platelet Production-Stimulating Activity in Mice
A test compound was intraperitoneally administered to four 7-week-old male BALB/c mice per group once a day for consecutive 5 days (day 1 to day 5). A control group (4 mice per group) received only the solvent (5% Tween 80/water). The blood was collected from the fundus oculi vein of each animal on the 15th day from the start of administration (day 15), and the number of the platelets was counted with a microcell counter (Model CC-180A, manufactured by Toa Iryo Denshi Co.). The rate of increase of the number of platelets in the test group (average) over the control (average) was calculated according to the following formula to evaluate the effect of the test compound.
A: the number of platelets in test group
B: the number of platelets in control group

**Q.** For `CN1Cc2c(c3c4ccccc4n(C)c3c3c2c2ccccc2n3C)C1=O` [Compound 9], which “Rel. Value (megakaryocyte colonies per dish relative to the control)” value ([1]; 1 nM) is on record?
**A.** The value was 128.

**Q.** `CN1Cc2c(c3c4ccccc4n(Cc4ccc(N(C)C)cc4)c3c3c2c2ccccc2n3Cc2ccc(N(C)C)cc2)C1=O` [Compound 20] was tested. Which “Rel. Value (megakaryocyte colonies per dish relative to the control)” value ([1]; 1 nM) did it give?
**A.** Its value is 140.

**Q.** Which “Rate of increase (number of platelets, A/B×100)” value (“Rate of increase” below) ([2]; 20 mg/kg i.p. once a day) does the source give for `CN(C)CCCn1c2ccccc2c2c3c(c4c5ccccc5n(C)c4c21)C(=O)N(C)C3=O` [Compound 25] here?
**A.** Its value is 151%.

**Q.** With `CNCCCn1c2ccccc2c2c3c(c4c5ccccc5n(C)c4c21)C(=O)N(C)C3=O` [Compound 26] as the molecule, how does the “Rel. Value (megakaryocyte colonies per dish relative to the control)” value ([1]; 1 nM) read?
**A.** The value was 117.

**Q.** With `CCN(CC)CCCn1c2ccccc2c2c3c(c4c5ccccc5n(C)c4c21)C(=O)N(C)C3=O` [Compound 27] as the molecule, how does the “Rate of increase” value ([2]; 40 mg/kg i.p. once a day) read?
**A.** Its value is 187%.

**Q.** With `CCCN(C)CCCn1c2ccccc2c2c3c(c4c5ccccc5n(C)c4c21)C(=O)N(C)C3=O` [Compound 31] as the molecule, how does the “Rate of increase” value ([2]; 40 mg/kg i.p. once a day) read?
**A.** Its value is 161%.

**Q.** For `CN1Cc2c(c3c4ccccc4[nH]c3c3[nH]c4ccccc4c23)C1=O` [Compound 80], which “Rel. Value (megakaryocyte colonies per dish relative to the control)” value ([1]; 1 nM) is on record?
**A.** The value was 111.

**Q.** `C=CCn1c2ccccc2c2c3c(c4c5ccccc5[nH]c4c21)C(=O)N(C)C3=O` [Compound 81] was tested. Which “Rel. Value (megakaryocyte colonies per dish relative to the control)” value ([1]; 10 nM) did it give?
**A.** Its value is 113.

**Q.** Which “Rel. Value (megakaryocyte colonies per dish relative to the control)” value ([1]; 1 nM) does the source give for `C=CCn1c2ccccc2c2c3c(c4c5ccccc5n(CC=C)c4c21)C(=O)N(C)C3=O` [Compound 82] here?
**A.** Its value is 101.

**Q.** With `CN1C(=O)c2c(c3c4ccccc4n(CC(O)CO)c3c3[nH]c4ccccc4c23)C1=O` (stereo not drawn) [Compound 83] as the molecule, how does the “Rel. Value (megakaryocyte colonies per dish relative to the control)” value ([1]; 1 nM) read?
**A.** Its value is 111.

**Q.** Which “Rel. Value (megakaryocyte colonies per dish relative to the control)” value ([1]; 10 nM) does the source give for `CN1C(=O)c2c(c3c4ccccc4n(CC(O)CO)c3c3c2c2ccccc2n3CC(O)CO)C1=O` (stereo not drawn) [Compound 84] here?
**A.** Its value is 132.

**Q.** How did the “Rel. Value (megakaryocyte colonies per dish relative to the control)” value ([1]; 1 nM) turn out when `CCOC(=O)Cn1c2ccccc2c2c3c(c4c5ccccc5n(CC(=O)OCC)c4c21)C(=O)NC3` [Compound 85] was run?
**A.** Its value is 125.

**Q.** `O=C1NCc2c1c1c3ccccc3n(CCCO)c1c1c2c2ccccc2n1CCCO` [Compound 86] was tested. Which “Rel. Value (megakaryocyte colonies per dish relative to the control)” value ([1]; 1 nM) did it give?
**A.** The value was 131.

**Q.** `O=C1NCc2c1c1c3ccccc3[nH]c1c1c2c2ccccc2n1CCCN1CCOCC1` [Compound 88] was tested. Which “Rel. Value (megakaryocyte colonies per dish relative to the control)” value ([1]; 1 nM) did it give?
**A.** The value was 120.

**Q.** How did the “Rel. Value (megakaryocyte colonies per dish relative to the control)” value ([1]; 1 nM) turn out when `O=C1c2c(c3c4ccccc4[nH]c3c3[nH]c4ccccc4c23)CN1C1CCCCO1` (stereo not drawn) [Compound 89] was run?
**A.** Its value is 110.

**Q.** For `O=C1NCc2c1c1c3ccccc3n(Cc3ccccc3)c1c1c2c2ccccc2n1Cc1ccccc1` [Compound 90], which “Rel. Value (megakaryocyte colonies per dish relative to the control)” value ([1]; 10 nM) is on record?
**A.** The value was 106.

**Q.** For `Cn1c2ccccc2c2c3c(c4c5ccccc5n(C)c4c21)C(=O)NC3` [Compound 91], which “Rel. Value (megakaryocyte colonies per dish relative to the control)” value ([1]; 1 nM) is on record?
**A.** Its value is 111.

**Q.** With `CN1C(=O)C(c2c[nH]c3ccccc23)=C(c2c[nH]c3ccccc23)C1=O` [Compound 93] as the molecule, how does the “Rel. Value (megakaryocyte colonies per dish relative to the control)” value ([1]; 1 nM) read?
**A.** The value was 109.

**Q.** `CCN(CC)CCCn1c2ccc(O)cc2c2c3c(c4c5cc(O)ccc5n(C)c4c21)C(=O)N(C)C3=O` [Compound 108] was tested. Which “Rate of increase” value ([2]; 25 mg/kg i.p. once a day) did it give?
**A.** The value was 179%.

**Q.** `CCN(CC)CCCn1c2ccc(Br)cc2c2c3c(c4c5cc(Br)ccc5n(C)c4c21)C(=O)N(C)C3=O` [Compound 110] was tested. Which “Rate of increase” value ([2]; 40 mg/kg i.p. once a day) did it give?
**A.** Its value is 184%.

**Q.** What about the “Rel. Value (megakaryocyte colonies per dish relative to the control)” value ([1]; 1 nM) of the same molecule?
**A.** Its value is 137.
